The text below walks through data of PubChem BioAssay (NCI).

What all share (assay): NCI tumour cell line growth inhibition, 48 h
The test system of assay [1] is HCT-15 colon.
The test system of assay [2] is MALME-3M melanoma.
Assay [3] deals with SN12C renal.
The test system of assay [4] is MDA-N.
The subject of assay [5] is RPMI-8226 leukemia.
In assay [6] the test system is COLO 205 colon.
The subject of assay [7] is OVCAR-5 ovarian.
In assay [8] the test system is M14 melanoma.
The test system of assay [9] is A549 NSCLC.
In assay [10] the test system is OVCAR-3 ovarian.
For assay [11], the system named is NCI-H522 lung.
Assay [12] has as its system CAKI-1 renal.

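1) Cells in 96-well plates. 2) Compound, 48 h, 5 concentrations. 3) Linear interpolation between surrounding doses. 4) Unreached endpoint = highest concentration. At the GI50, growth is halved. The concentration for full growth arrest is given as TGI.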

On to `O=C(CN1c2ccccc2Sc2ccccc21)n1cnc2ccccc21`, for which the TGI in assay [1], in [2], in assay [3], in [4], in assay [5] and in [6] was above 100 µM in each case. Also, the TGI in assay [7], in assay [8], in assay [9] and in assay [10] was above 100 µM each time.
For the compound `CC[n+]1c(/C=C/c2ccc(N(CCCl)CCCl)cc2)ccc2cc(Br)ccc21`, the GI50 in [1] was 2520 µM; in assay [2] it was 84 µM; in assay [5], 162 µM; in assay [7], 202 µM; in assay [9] it was 1370 µM; in [12], 1650 µM. Moreover, the TGI came out at 10.6 µM in [3]; 128 µM in assay [6]; 4.66 µM in assay [11]; 4.19 µM in assay [8]; 2.22 µM in [10].
With `COC(=O)/C=C(\S/C(=C(/c1ccccc1)n1cc(C(=O)OC)c(C(=O)OC)n1)c1ccccc1)C(=O)OC`, the TGI in assay [1] turned out to be 29 µM; in [2], 31.9 µM; in assay [3] it was 40.9 µM; in assay [4], 37.9 µM; in [5], 26.9 µM; in assay [6], 4.09 µM. In addition, the TGI was found to be 32.7 µM in assay [7]; 29.8 µM in [8]; 62.6 µM in assay [9]; 8.29 µM in assay [10]; 6.66 µM in assay [12].
Take `CN(C)c1ccc(C=Nc2ccc(-c3nc4ccccc4o3)cc2)cc1`: the TGI in [1], in [2], in assay [3], in [6], in [11] and in assay [7] was above 100 µM in each case. For the same compound, the TGI is above 100 µM in [8], above 100 µM in [9] and 51.4 µM in [10].
As to `CN(Cc1cnc2nc(N)nc(N)c2n1)c1ccc(C(=O)NC2CCCCC2)cc1`, the TGI in assay [1], in assay [2], in assay [3], in assay [4], in [5] and in assay [6] was above 100 µM each time. The TGI in assay [7] is above 100 µM; in assay [8], 29 µM; in assay [10], above 100 µM; in assay [12] it was above 100 µM.
Take `O=[N+]([O-])c1ccc2nc(/C=C(\O)c3ccccc3)c(/C=C(\O)c3ccc(Cl)cc3)nc2c1`: the TGI in assay [1] was above 100 µM; in assay [2], above 100 µM; in [3] it was above 100 µM; in [4], above 100 µM; in [6], above 100 µM; in assay [11] it was 79.7 µM. Further, the TGI in assay [7], in [8], in assay [9], in assay [10] and in [12] was above 100 µM throughout.
Turning to `CCOC(=O)C(NC(=O)Nc1ccccc1F)(OC)C(F)(F)F` (centres undefined), the TGI in assay [1], in [3], in assay [4], in [5], in assay [6] and in assay [7] was above 100 µM in each case. In addition, the TGI in assay [8], in assay [9] and in [12] was above 100 µM in each case.
On to `N#Cc1c(-c2ccccc2)cc(Nc2ccc(F)cc2)n2c1nc1ccccc12`, for which the TGI is above 30.4 µM in assay [1]; above 28.4 µM in [2]; 6.1 µM in assay [3]; above 100 µM in assay [5]; 2.97 µM in [6]; 5.83 µM in assay [11]. Moreover, the TGI in assay [7] is above 29.2 µM; in assay [8], above 100 µM; in assay [9] it was above 100 µM; in [10], 19.3 µM; in assay [12], above 100 µM.
For `COc1cccc(/C=N/[N-]C(N)=O)c1[O-].[OH3+].[Zn+2]`, the TGI in assay [1], in [2], in assay [3], in [5], in assay [6] and in [11] was above 100 µM throughout. Also, the TGI in assay [7], in [8], in assay [9], in assay [10] and in assay [12] was above 100 µM each time.
On to `c1ncc(C23C4C5C6C4C2C6C53)[nH]1` (centres undefined), for which the TGI in assay [1], in assay [2], in [3], in [4], in assay [5] and in assay [6] was above 100 µM in each case. In addition, the TGI in [7], in assay [8], in assay [9], in [10] and in assay [12] was above 100 µM in each case.
Regarding `CC(=O)NC1C(OCc2ccccc2)OC(CO)C(O)C1OC(C)C(=O)NC(C(=O)NC(CCC(=O)Nc1ccc2c(c1)CN1C(=O)c3ccccc3C1=N2)C(N)=O)C(C)C` (centres undefined), the TGI in assay [1], in [2], in assay [3], in [4], in [5] and in [6] was above 100 µM each time. Moreover, the TGI in assay [7], in assay [8], in [9], in [10] and in [12] was above 100 µM in each case.
`Cc1oc2nc(N(C)C)n3c(C)nnc3c2c1C`: the TGI in [1], in assay [3], in assay [5], in [6], in assay [11] and in [7] was above 100 µM each time. Further, the TGI in [8], in assay [9] and in assay [12] was above 100 µM in each case.
With `N=C1SCCS1`, the TGI in assay [1], in [2], in assay [3], in assay [5], in assay [6] and in assay [11] was above 100 µM in each case. Also, the TGI in assay [7], in assay [8], in [9], in assay [10] and in assay [12] was above 100 µM each time.
Regarding `NC1=NC(=O)[C@H](CSCc2ccccc2)N1C(=O)OCc1ccccc1`, the TGI in assay [1], in assay [2], in assay [3], in assay [4], in [6] and in assay [11] was above 100 µM in each case. Further, the TGI in assay [7], in [10] and in [12] was above 100 µM in each case.
With `CSc1ccc(C=C2N=C(c3ccccc3)N(c3cc(C(=O)c4ccccc4)ccc3N3C(=O)/C(=C/c4ccc(SC)cc4)N=C3c3ccccc3)C2=O)cc1`, the TGI in assay [1], in assay [3], in assay [4], in [5], in [6] and in [7] was above 100 µM throughout. Moreover, the TGI in assay [8] is above 100 µM; in assay [9] it was above 100 µM; in assay [10], 55.1 µM; in assay [12], above 100 µM.
Turning to `COc1cc(/C=C2\N=C(c3ccccc3)N(/N=C/c3cc4cc(C)ccc4nc3Cl)C2=O)ccc1O`, the TGI was above 100 µM in [1]; 77.1 µM in assay [3]; 32 µM in assay [4]; 80.8 µM in [5]; above 100 µM in [6]; above 100 µM in [7]. Besides, the TGI in [8], in [9], in assay [10] and in assay [12] was above 100 µM each time.
Turning to `N#CCCN(CCC#N)c1ccc(/C=C2\N=C(c3ccccc3)N(NC(=O)c3ccncc3)C2=O)cc1`, the TGI in assay [1], in assay [3], in assay [4], in assay [5], in assay [6] and in [7] was above 100 µM in each case. The TGI in assay [8], in assay [9] and in assay [10] was above 100 µM each time.
`O=C1c2cc([N+](=O)[O-])cnc2S(=O)(=O)N1c1ccc(Oc2ccccc2)cc1`: the TGI in assay [1], in [2], in assay [3], in assay [5], in assay [6] and in assay [11] was above 100 µM throughout. Besides, the TGI in [7], in [8], in assay [9] and in assay [10] was above 100 µM each time.
As for `CC(=O)NC1C(OCc2ccccc2)OC(CO)C(O)C1OCC(=O)NC(C)C(=O)NC(CCC(=O)Nc1ccc2c(c1)CN1C(=O)c3ccccc3C1=N2)C(N)=O` (centres undefined), the TGI in [1], in [2], in [3], in [4], in assay [5] and in assay [6] was above 100 µM in each case. For the same compound, the TGI in [7], in assay [8], in assay [9], in assay [10] and in [12] was above 100 µM in each case.
As to `c1ccc(NC2(c3nnnn3C3CCCCC3)CCNCC2)cc1`, the TGI in [1] stood at 51.6 µM; in assay [2], 32.4 µM; in [3] it was 90.1 µM; in assay [5], 59.6 µM; in assay [6] it was 40.9 µM; in assay [7], 43.4 µM. Moreover, the TGI in assay [8] is 35.8 µM; in [9], above 100 µM.
Turning to `OCC1OC(NC(=S)NCSCCC(F)(F)C(F)(F)C(F)(F)C(F)(F)C(F)(F)C(F)(F)F)C(O)C(O)C1O` (centres undefined), the TGI in assay [1], in [2], in [3], in assay [4], in assay [5] and in assay [6] was above 100 µM throughout. Further, the TGI is above 100 µM in assay [7]; 62.1 µM in [8]; above 100 µM in [9]; above 100 µM in [10]; above 100 µM in assay [12].
As to `CC1C2CC(CC2=O)C1(C)C` (centres undefined), the TGI in assay [2], in [3], in assay [4], in assay [6], in assay [11] and in assay [7] was above 100 µM in each case. The TGI in assay [8], in assay [9], in assay [10] and in assay [12] was above 100 µM each time.
Take `O=C(O)c1ccccc1/C=C1\Cc2ccc3c(c2C1=O)CCCC3`: the TGI was above 100 µM in [1]; above 100 µM in assay [2]; above 100 µM in assay [3]; 60.8 µM in [5]; above 100 µM in assay [6]; 65.9 µM in assay [11]. For the same compound, the TGI in assay [7] is above 100 µM; in assay [8] it was 81.1 µM; in assay [9], above 100 µM; in assay [10] it was above 100 µM.
With `COc1ccc(-n2c(-c3ccccc3)cc(-c3cccs3)c2-c2cccs2)cc1`, the TGI in assay [1], in [3], in [5], in assay [6], in [11] and in [7] was above 100 µM each time. Also, the TGI in assay [8], in assay [9], in assay [10] and in assay [12] was above 100 µM in each case.
Consider `C/C(O)=C/c1nc2sc(C)c(C)c2c(=O)s1`, for which the TGI in [1], in [2], in [3], in assay [4], in [5] and in assay [6] was above 100 µM each time. Moreover, the TGI in [7], in assay [8], in assay [9], in [10] and in [12] was above 100 µM each time.
